In patent publication US20220324835A1 (Nurix Therapeutics, Inc., priority 2018, published 2022):

Legend:
T-cell = test: CD25 cell surface staining on T-cells co-stimulated with anti-CD3 and anti-CD28 antibody (Biological Example 2); format: cell-based, human; conditions: Homo sapiens, T-cell, fold change over baseline, primary human total T-cells, read-out: CD25 staining Anti-CD3/Anti-CD28 stimulation; for fold induction at 0.3 µM: 0.3 μM Cbl-b inhibitor; for fold induction at 1 µM: 1 μM Cbl-b inhibitor; for fold induction at 4 µM: 4 μM Cbl-b inhibitor
Method in brief: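 Values are fold-change over baseline: readings (IL-2 release, CD25 staining) from inhibitor-treated T-cells divided against untreated cells […]. No detailed procedure stated.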

[1] = system: human T-cells with allogenic immature dendritic cells; test: Allogenic mixed lymphocyte reaction (MLR), T-cell proliferation; format: cell-based; conditions: 120 h, 5 days, baseline T-cells without Cbl-b inhibitor, read-out: Proliferation, fold change over baseline
Description: Cbl-b inhibitor effects on primary human T-cells were also evaluated in the context of an allogenic mixed lymphocyte reaction (MLR). Allogenic immature dendritic cells were generated under the following conditions. Peripheral blood mononuclear cells (PBMC) were obtained either: 1) by using Ficoll-Paque™ (GE Healthcare) for separation of peripheral blood hematopoietic cells from huffy coats of healthy human donors; or 2) directly from LeukoPak donations. […] Monocytes were cultured with 30 ng/mL of recombinant human GM-CSF and 20 ng/mL of recombinant human IL-4 for seven days to generate immature dendritic cells. Monocytes and T-cells were either isolated fresh from peripheral blood or thawed from frozen stocks. Human T-cells were isolated, labeled with CFSE and incubated with inhibitors as described above. […] Proliferation of the T-cells was evaluated by flow cytometry.
Readouts for the allogenic mixed lymphocyte reaction were reported as fold change over baseline. Baseline for this study was the measurement obtained from total human T-cells stimulated with allogenic immature dendritic cells, wherein the T-cells were not incubated with a Cbl-b inhibitor (Table 5). Increases in proliferation greater than 2-fold over baseline were considered a positive response (Table 5).

primary human B cells = test: B cell activation assay (CD69 on anti-IgM stimulated B cells); format: cell-based; conditions: AUC of dose response curve (10 μM to 1 nM) of CD69 MFI normalized to DMSO control
Description: Peripheral blood mononuclear cells (PBMC) were obtained either: 1) by using Ficoll-Paque™ (GE Healthcare) for separation of peripheral blood hematopoietic cells from buffy coats of healthy human donors; or 2) directly from LeukoPak donations. Human primary B cells were isolated from the PBMCs utilizing negative selection with commercial kits following the manufacturer's protocol (StemCells Catalog #17954) to yield >95% CD20+ cells assessed by flow cytometry. Primary human B cells were plated at 0.7-1×10^5 per well in a 96-well plate with Cbl-b inhibitors over a dose ranging from 10 μM to 1 nM and incubated at 37° C. 5% CO2, with a final DMSO concentration of <0.5%. Cells were stimulated with anti-IgM for 20 hours at 37° C. 5% CO2. Surface activation markers on mature CD20^+ IgD^+ B cells were monitored by FACS using an anti-CD69 antibody (BD Biosciences).
Cbl-b inhibitors were tested to determine their ability to induce or enhance surface expression of cell surface markers on B cells (e.g., CD69), which is indicative of B cell activation.
Readouts were reported as area under curve (AUC) of the dose response curve of CD69 mean fluorescence intensity (MFI) normalized to the DMSO control. Baseline for this study was the measurement obtained from primary human B cells treated with DMSO in the presence of 2.5 μg/mL of anti-IgM-F(ab′)2. […] Compounds were ranked into bins according to their readouts as follows: A indicates ≤0.5, B indicates 0.5-1.00, C indicates 1.01-1.50, and D indicates ≥1.51.

Cbl-b (residues 36-427) = Cbl-b (residues 36-427) (Homo sapiens, UniProt Q13191); test: Cbl-b binding assay (SPR, Biacore T200); conditions: 20° C., 1:1 binding model
Sequence of Cbl-b (residues 36-427) (Q13191 36-427): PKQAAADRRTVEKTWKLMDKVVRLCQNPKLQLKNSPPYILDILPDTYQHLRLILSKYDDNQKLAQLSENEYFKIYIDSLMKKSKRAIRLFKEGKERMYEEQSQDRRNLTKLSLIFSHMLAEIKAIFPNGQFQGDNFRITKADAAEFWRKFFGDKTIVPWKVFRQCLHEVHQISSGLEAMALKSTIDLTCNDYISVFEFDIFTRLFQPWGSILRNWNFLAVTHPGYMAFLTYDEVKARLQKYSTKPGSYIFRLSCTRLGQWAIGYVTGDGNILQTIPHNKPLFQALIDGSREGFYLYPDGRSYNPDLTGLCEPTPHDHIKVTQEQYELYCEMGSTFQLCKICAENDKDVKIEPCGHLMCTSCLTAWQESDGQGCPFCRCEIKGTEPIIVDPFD
Method in brief: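 NeutrAvidin capture chip, 20° C; 50 s injections at 50 μl/min, 90-180 s dissociation; 0.3 M NaCl regeneration. Asterisked column: 50 mM NaCl buffer and 30 nM Src kinase in place of 100 mM NaCl and 60 nM Src kinase. 1:1 fit.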

Structure (SMILES)	fold induction at 0.3 µM (T-cell)	fold induction at 1 µM (T-cell)	fold induction at 4 µM (T-cell)	fold induction at 3 µM [1]	fold induction at 10 µM [1]	CD69 MFI AUC (primary human B cells)	Kd (Cbl-b (residues 36-427)) [nM]
Cc1cc(C(=O)Nc2cccc([C@@H](C)Cc3nncn3C)c2)nc(C2CC2)n1 [Compound 325, (S)-2-Cyclopropyl-6-methyl-N-(3-(1-(4-methyl-4H-1,2,4-triazol-3-yl)propan-2-yl)phenyl)pyrimidine-4-carboxamide]	1.01 to 1.3	1.01 to 1.3	1.01 to 1.3	< 2	< 2	C (C indicates 1.01-1.50)	301 to 1000
C[C@H](Cc1nncn1C)c1cccc(N2Cc3c(cccc3C(F)(F)F)C2=O)c1 [Compound 255a, (R)-2-(3-(1-(4-methyl-4H-1,2,4-triazol-3-yl)propan-2-yl)phenyl)-4-(trifluoromethyl)isoindolin-1-one]	1.31 to 1.5	1.51 to 1.75	> 1.76	< 2	< 2	C (C indicates 1.01-1.50)	100 to 300
Cc1cc(C(=O)Nc2cccc(C3(Cc4nncn4C)COC3)c2)nc(C2CC2)n1 [Compound 336, 2-cyclopropyl-6-methyl-N-(3-(3-((4-methyl-4H-1,2,4-triazol-3-yl)methyl)oxetan-3-yl)phenyl)pyrimidine-4-carboxamide]	1.31 to 1.5	> 1.76	1.51 to 1.75	< 2	> 3.01	D (D indicates ≥1.51)	< 100
C[C@H](Cc1nncn1C)c1cccc(NC(=O)c2n[nH]c3c2CCC3)c1 [Compound 313, (R)-N-(3-(1-(4-Methyl-4H-1,2,4-triazol-3-yl)propan-2-yl)phenyl)-1,4,5,6-tetrahydrocyclopenta[c]pyrazole-3-carboxamide]	1.01 to 1.3	1.01 to 1.3	1.01 to 1.3	< 2	< 2	B (B indicates 0.5-1.00)	301 to 1000
Cc1cc(C(=O)Nc2cccc([C@H](C)Cc3nncn3C)c2)nc(C2CC2)n1 [Compound 195, (R)-2-cyclopropyl-6-methyl-N-(3-(1-(4-methyl-4H-1,2,4-triazol-3-yl)propan-2-yl)phenyl)pyrimidine-4-carboxamide]	1.51 to 1.75	> 1.76	> 1.76	< 2	2.01 to 3	D (D indicates ≥1.51)	< 100
C[C@H](Cc1nncn1C)c1cccc(NC(=O)c2cccc(C(F)(F)F)n2)c1 [Compound 183a, (R)-N-(3-(1-(4-methyl-4H-1,2,4-triazol-3-yl)propan-2-yl)phenyl)-6-(trifluoromethyl)picolinamide]	> 1.76	> 1.76	> 1.76	< 2	< 2	C (C indicates 1.01-1.50)	100 to 300
Cn1cnnc1CC1(c2cccc(NC(=O)c3nc4c(C(F)(F)F)cccc4[nH]3)c2)COC1 [Compound 335, N-(3-{3-[(4-methyl-1,2,4-triazol-3-yl)methyl]oxetan-3-yl}phenyl)-4-(trifluoromethyl)-1H-1,3-benzodiazole-2-carboxamide]	1.31 to 1.5	1.51 to 1.75	1.51 to 1.75	< 2	< 2	B (B indicates 0.5-1.00)	< 100
